Results on 2 compounds are retold here after patent publication US20160038490A1, “COMPOSITIONS AND METHODS FOR TREATING DYSPROLIFERATIVE DISEASES” (ANGION BIOMEDICA CORP., priority 2012, published 2016).

Read-outs that look alike come from different tables or passages of the source.

Broadly, the EC50 is the concentration needed to bring the measured effect to its halfway point.

The test system of data set [1] is SK-BR-3 cells. As to the kind of experiment: Cell proliferation, Cell Titer Glo, checkerboard design. To be noted: for EC50: Homo sapiens. The class given is cell-based. The protocol:
The effect of all-trans retinoic acid (ATRA), a CYP26 inhibitor and their combination was studied using two HER2+ RARA+ breast cancer cell lines: AU565 and SK-BR-3. Cells were plated in a 96-well plate and treated with compounds in a “checkerboard” design. After 7 days the cell proliferation was determined using the Cell Titer Glo reagent (Promega).
(§1) This provides a strong rationale for the simultaneous targeting of both signaling pathways in breast cancer patients.
On the technique in general: In ATP-based viability assays light output follows the ATP content of the culture.

Data set [2] concerns SK-BR-3 cells. As to the kind of experiment: Apoptosis assay (Caspase 3/7 assay). The format is cell-based.
Source text: as §1

The test system of data set [3] is SK-BR-3 cells. As to the kind of experiment: ATRA metabolism in breast cancer cells. The format is cell-based. To be noted: 2×10^6 SK-BR-3 cells treated with 100 nM ATRA, no CYP26 inhibitor. The protocol: To directly test whether ATRA induces its own metabolism, we treated 2×10^6 SK-BR-3 cells with 100 nM ATRA and determined the ATRA concentration after 24 hours. Significant metabolism of ATRA was found (FIG. 4), with the ATRA concentration dropping to 6 nM after 24 hrs.

In data set [4] the test system is SK-BR-3 breast cancer cells. As to the kind of experiment: Breast cancer xenograft study. To be noted: SK-BR-3 xenograft, immuno-compromised mice; CYP26 inhibitor 10 mg/kg po qd×5, Lapatinib 100 mg/kg po qd×5; compared to vehicle.
Description: Once palpable tumors were established in immuno-compromised mice, animals were randomized to four treatment groups: (1) Vehicle, (2) CYP26 inhibitor (10 mg/kg, po, qd×5), (3) the EGFR/HER2 inhibitor Lapatinib (100 mg/kg, po, qd×5) or (4) the combination of the two (10 mg/kg CYP26 inhibitor and 100 mg/kg Lapatinib).

Take `CC1=C(/C=C/C(C)=C/C=C/C(C)=C/C(=O)O)C(C)(C)CCC1` [ATRA, all-trans retinoic acid]: in the data set with SK-BR-3 cells [1] (168 h, SK-BR-3, 7 days, ATRA alone, estimated, read-out: EC50, inhibition of cell growth), the EC50 was around 0.04 µM. Moreover, the “effect on cell growth” value in the data set on SK-BR-3 cells [1] (SK-BR-3, lapatinib/ATRA experiment) is recorded as “inhibited breast cancer cell growth”. The “effect on Caspase 3/7 activity” value with SK-BR-3 cells [2] (SK-BR-3, synergy analyzed with Bliss additivity model) was “small effect”. Moreover, in the data set with SK-BR-3 cells [3], the “ATRA concentration after 24 hours” value amounted to 6 nM.
Turning to `CS(=O)(=O)CCNCc1ccc(-c2ccc3ncnc(Nc4ccc(OCc5cccc(F)c5)c(Cl)c4)c3c2)o1` [lapatinib], in the data set on SK-BR-3 cells [1] (SK-BR-3, lapatinib alone, read-out: EC50, inhibition of cell growth in the absence of ATRA), the EC50 turned out to be 0.064 µM. Besides, in the data set on SK-BR-3 cells [2] (SK-BR-3, 24 hours incubation, absence of ATRA), the “induction of Caspase 3/7 activity” value was around 2 fold. Also, in data set [4], the “tumor progression / tumor growth inhibition” value was “Markedly reduced tumor progression”.
